Results published in ChEMBL document CHEMBL1201862, “PubChem BioAssay data set” (2004).
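Briefly, cells in 96-well plates were exposed to five compound concentrations for 48 h, and endpoints were estimated by linear interpolation. The concentration for 50% growth inhibition is given as GI50.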 Activity calls are given as the source filed them. Rule as the data show it: active = GI50 up to about 1.1 µM and inactive = higher. Where a SMILES comes first, the peptide text is derived from it. [ ]: non-standard residue; d: D form. The star is where a group is joined. Iva = CC[C](C)(N)C(=O)O; Boc = CC(C)(C)OC(=O)*; X54 = C1CCC(=NO*)C1

Legend:
Test in all cases: NCI anticancer screen, dose series, 48 h
CCRF-CEM = tested on: CCRF-CEM
MCF7 = tested on: MCF7
LOX IMVI = tested on: LOX IMVI
SR = tested on: SR
Malme-3M = tested on: Malme-3M
SK-MEL-2 = tested on: SK-MEL-2
OVCAR-3 = tested on: OVCAR-3
COLO 205 = tested on: COLO 205
A498 = tested on: A498
SK-MEL-5 = tested on: SK-MEL-5
M14 = tested on: M14
SF-268 = tested on: SF-268
NCI-H460 = tested on: NCI-H460
OVCAR-8 = tested on: OVCAR-8
CAKI-1 = tested on: CAKI-1
SNB-19 = tested on: SNB-19
IGROV-1 = tested on: IGROV-1
HCT-15 = tested on: HCT-15
SF-295 = tested on: SF-295
MOLT-4 = tested on: MOLT-4

SMILES: COC(=O)/C=C\Sc1ccn(/C=C\C(=O)OC)c(=S)n1
- GI50 (CCRF-CEM): > 100 µM (inactive)
- GI50 (MCF7): 14.3 µM (inactive)
- GI50 (LOX IMVI): 2.77 µM (inactive)
- GI50 (SR): 13.7 µM (inactive)
- GI50 (Malme-3M): 22.4 µM (inactive)
- GI50 (SK-MEL-2): 19.9 µM (inactive)
- GI50 (OVCAR-3): 13.8 µM (inactive)
- GI50 (COLO 205): 66.5 µM (inactive)
- GI50 (A498): 20.2 µM (inactive)
- GI50 (SK-MEL-5): 24.1 µM (inactive)
- GI50 (M14): 49.9 µM (inactive)
- GI50 (SF-268): 24.4 µM (inactive)
- GI50 (NCI-H460): > 10 µM (inactive)
- GI50 (OVCAR-8): 19.2 µM (inactive)
- GI50 (CAKI-1): 16.6 µM (inactive)
- GI50 (SNB-19): 21.8 µM (inactive)
- GI50 (IGROV-1): 16.9 µM (inactive)
- GI50 (HCT-15): 16.7 µM

SMILES: COc1ncnc2c(Cl)c(C(O)c3ccccc3)c(Cl)cc12 (stereo not given)
- GI50 (MCF7): 31.4 µM (inactive)
- GI50 (LOX IMVI): 53.3 µM (inactive)
- GI50 (SR): 3.5 µM (inactive)
- GI50 (Malme-3M): 34.6 µM (inactive)
- GI50 (SK-MEL-2): 33.6 µM (inactive)
- GI50 (OVCAR-3): 43.8 µM (inactive)
- GI50 (SF-295): 24.4 µM (inactive)
- GI50 (COLO 205): 29.4 µM (inactive)
- GI50 (A498): 19.7 µM (inactive)
- GI50 (SK-MEL-5): 26.2 µM (inactive)
- GI50 (M14): 23.9 µM (inactive)
- GI50 (MOLT-4): 24 µM (inactive)
- GI50 (SF-268): 21 µM (inactive)
- GI50 (NCI-H460): 30.8 µM (inactive)
- GI50 (OVCAR-8): 30.5 µM (inactive)
- GI50 (CAKI-1): 34.7 µM (inactive)
- GI50 (SNB-19): 26.6 µM (inactive)
- GI50 (IGROV-1): 29.3 µM (inactive)
- GI50 (HCT-15): 24.6 µM

SMILES: CCC(C)(NC(=O)C(C)NC(=O)OC(C)(C)C)C(=O)NC(C)C(=O)NC(C)(CC)C(=O)ON=C1CCCC1 (stereo not given) (Boc-A[Iva]A[Iva]-X54; configuration not given here)
- GI50 (CCRF-CEM): > 100 µM (inactive)
- GI50 (MCF7): > 100 µM (inactive)
- GI50 (SR): > 100 µM (inactive)
- GI50 (Malme-3M): > 100 µM (inactive)
- GI50 (SK-MEL-2): > 100 µM (inactive)
- GI50 (OVCAR-3): > 100 µM (inactive)
- GI50 (SF-295): > 100 µM (inactive)
- GI50 (COLO 205): > 100 µM (inactive)
- GI50 (A498): > 100 µM (inactive)
- GI50 (SK-MEL-5): > 100 µM (inactive)
- GI50 (M14): > 100 µM (inactive)
- GI50 (MOLT-4): 29.9 µM (inactive)
- GI50 (NCI-H460): > 100 µM (inactive)
- GI50 (OVCAR-8): > 100 µM (inactive)
- GI50 (CAKI-1): > 100 µM (inactive)
- GI50 (SNB-19): > 100 µM (inactive)
- GI50 (IGROV-1): > 100 µM (inactive)
- GI50 (HCT-15): > 100 µM
